Columns and labels:
crabgrass [1] = test: Greenhouse synergy test MBI-005 + field crop herbicides (Example 11); format: in vivo; settings: 14 days
Procedure: (§1) […] other herbicides commonly used for field crops, glyphosate, glufosinate, synthetic version of bialaphos, and mesotrione were also tested for synergy with MBI-005 on crabgrass and ragweed.
(§2) There were 3 replicates per treatment which were sprayed with approximately ⅔ ml per replicate. The treatments were completely randomized and kept in a greenhouse at 25° C. The efficacy was rated at 7 and 14 days post treatment.

ragweed = test: Greenhouse synergy test MBI-005 + commercial herbicides (Example 11); format: in vivo; settings: 14 days
Procedure: (§3) The test species barnyard grass, ragweed, sedge, and broad-leaf mustard were used for the valuation of synergy between MBI-005 and the rice herbicides clomazone, penoxsulam, cyhalofop, fenoxaprop-p-ethyl, bispyribac-sodium, thiobencarb, and propanil.
as §1, §2

broad-leaf mustard = test: as above; format: in vivo; settings: 14 days
Procedure: as §3, §2

barnyard grass [2] = test: as above; format: in vivo; settings: 14 days
Procedure: as §3, §2

[3] = test system: small flower umbrella sedge; test: Post-emergent MBI-005 + rice herbicides on smallflower umbrella sedge (Example 19); format: in vivo; settings: 14 days
Procedure: (§4) Twenty seedlings in 2.5 cm square pots containing plant growth mix were sprayed to full coverage using a hand sprayer. Negative controls were sprayed with water. Pots were randomly placed in a growth room at 25° C. and 50% RH, and watered as necessary. Treatments were replicated three times and evaluated at 7 and 14 days for visual % damage, with 0% indicating no damage and 100% indicating plant death.
(§5) Synergy was calculated as the ratio of observed (E) to expected (E/Ee) percent control using Colby's formula.

barnyard grass [4] = test: Post-emergent MBI-005 + Propanil on barnyard grass (Example 20); format: in vivo; settings: Echinochloa crus-galli, post-emergence, 336 h; 25% Propanil (of label rate); 14 days; read-out: Observed Average % Efficacy (E)
Procedure: Negative controls were sprayed with water. Pots were randomly placed in a growth room at 25° C. and 50% RH, and watered as necessary. Treatments were replicated three times and evaluated at 7 and 14 days for visual % damage, with 0% indicating no damage and 100% indicating plant death.
as §5

redstem; Ammania spp. = test: Greenhouse study thaxtomin A / sarmentine (Example 9); format: in vivo; settings: 25 days after treatment
Procedure: (§6) A strain of S. acidiscabies was grown in oat bran broth for 5 days (25° C., 200 rpm). The whole cell broth was extracted using XAD resin, and the dried crude extract was resuspended in 4% ethanol and 0.2% non-ionic surfactant at a concentration of 10 mg/mL. The diluted extracts containing 0.2 and 0.4 mg thaxtomin A per mL were tested on three weed species (redstem; Ammania spp., smallflower umbrella sedge; Cyperus difformis and sprangletop: Leptochloa uninervia). Other treatments included sarmentine at 2.5 and 5.0 mg/mL, and a combination treatment containing 0.2 mg thaxtomin A and 2.5 mg sarmentine per mL. Each treatment was applied in three replicates. Treated plants were kept in a greenhouse under 12 h light/12 h dark conditions.

[5] = test system: smallflower umbrella sedge; Cyperus difformis; test: as above; format: in vivo; settings: 25 days after treatment
Procedure: as §6

[6] = test system: sprangletop: Leptochloa uninervia; test: as above; format: in vivo; settings: 25 days after treatment
Procedure: as §6

sedge = test: Greenhouse synergy test MBI-005 + commercial herbicides (Example 11); format: in vivo; settings: penoxsulam 0.047 mg/mL, 14 days
Procedure: as §3, §2

barnyard grass [7] = test: Post-emergent MBI-005 + rice herbicides on barnyard grass (Example 18); format: in vivo; settings: 14 days
Procedure: as §4, with “Ten” for “Twenty”
Synergistic effect were noted between MBI-005 and all three rice herbicides, 14 days after treatment. Synergy was calculated as the ratio of observed (E) to expected (E/Ee) percent control using Colby's formula.

watergrass = test: Field study, 1-sq foot plots (Example 5); format: in vivo; settings: 14 days after treatment
Procedure: (§7) The combined effect of thaxtomin A and two commercial herbicides (Bipyribac-sodium formulated as Regiment and Lemongrass oil formulated as GreenMatch EX) on small-flower umbrella sedge and watergrass is tested in a field study using small (1-sq foot) plots. All single product treatments and tank mix combinations were sprayed at 57 gal per acre. Means in each column marked with the same letter in Table 2 are not statistically different from each other at p<0.05

[8] = test system: small-flower umbrella sedge; test: Field study, 1-sq foot plots (Example 5); format: in vivo; settings: 14 days after treatment
Procedure: as §7

[9] = in vivo; cited from earlier work
crabgrass [10] = test: Post-emergent MBI-005 + Atrazine on crabgrass (Example 17); format: in vivo; settings: 35% Atrazine Label Rate
Procedure: as §4, with “Ten” for “Twenty”, “with two suboptimal rates of MBI-005, and 35% of the atrazine label rate (0.3 gallons/A), or a combination thereof, at a volume of 40 gal/A” for “to full coverage”, “cabinet track” for “hand”, “five” for “three”
as §5

[11] = Bispyribac-sodium 13.3% v/v of label rate

CS(=O)(=O)c1ccc(C(=O)C2C(=O)CCCC2=O)c([N+](=O)[O-])c1 [mesotrione]
% Control Product (crabgrass [1]; mesotrione 0.24 mg/mL): 62.5% | % Control Product (ragweed; mesotrione 0.96 mg/mL): 25.0%

O=C(O)CNCP(=O)(O)O [glyphosate]
% Control Product (crabgrass [1]; glyphosate 0.754 mg/mL): 45.8% | % Control Product (ragweed; glyphosate 2.198 mg/mL): 15.0%

CCC(=O)Nc1ccc(Cl)c(Cl)c1 [propanil]
% Control Product (broad-leaf mustard; propanil 0.036 mg/mL): 1.67% | % Control Product (barnyard grass [2]; propanil 0.365 mg/mL): 32.5% | % control AI ([3]; Propanil .5% v/v of label rate): 62.5% | Observed average % efficacy (visual damage) (barnyard grass [4]): 32.5%

CCCCC/C=C/C=C/C(=O)N1CCCC1 [Sarmentine]
Control of redstem (%) (redstem; Ammania spp.; Sarmentine 2.5 mg/mL): 0a % | Control of redstem (%) (redstem; Ammania spp.; Sarmentine 5.0 mg/mL): 2.5ab % | Control of sedge (%) ([5]; Sarmentine 2.5 mg/mL): 8.3a % | Control of sedge (%) ([5]; Sarmentine 5.0 mg/mL): 6.7a % | Control of sprangletop (%) ([6]; Sarmentine 2.5 mg/mL): 80.0c % | Control of sprangletop (%) ([6]; Sarmentine 5.0 mg/mL): 92.3d %

COc1cnc(OC)n2nc(NS(=O)(=O)c3c(OCC(F)F)cccc3C(F)(F)F)nc12 [penoxsulam]
% Control Product (sedge): 66.7% | % Control Product (barnyard grass [2]; penoxsulam 0.051 mg/mL): 25.0% | % control AI ([3]; Penoxsulam 13% v/v of label rate): 33.3% | % control chemical AI (barnyard grass [7]; Penoxsulam 13.0 % v/v of label rate): 25.0%

COc1cc(OC)nc(Oc2cccc(Oc3nc(OC)cc(OC)n3)c2C(=O)O)n1 [Bispyribac-sodium]
% Control Product (broad-leaf mustard; bispyribac-sodium 0.0216 mg/mL): 53.3% | % Control Product (barnyard grass [2]; bispyribac-sodium 0.032 mg/mL): 0.0% | Watergrass control (%) (watergrass; Bispyribac-sodium 12 g/acre): 32.5a % | Watergrass control (%) (watergrass; Bispyribac-sodium ½ (6 g/acre)): 15c % | Sedge control (%) ([8]; Bispyribac-sodium 12 g/acre): 87.5a % | Sedge control (%) ([8]; Bispyribac-sodium ½ (6 g/acre)): 47.5c % | % Control Product (ragweed; bispyribac-sodium 0.0216 mg/mL): 5.0% | % control AI [3, 11]: 37.5% | % control chemical AI (barnyard grass [7]; [11]): 6.7%

CN1C(=O)[C@H](Cc2c[nH]c3cccc([N+](=O)[O-])c23)N(C)C(=O)[C@@H]1Cc1ccccc1 [thaxtomin D, reference compound]
activity as pre and post emergent, non-systemic herbicides [9]: marked activity

CCNc1nc(Cl)nc(NC(C)C)n1 [Atrazine, reference compound]
AVG E (visual % damage) (crabgrass [10]; 7DAT): 11.9% | AVG/ E (visual % damage) (crabgrass [10]; 14DAT): 8.8%

Source: patent publication US9066516B2, “Uses of thaxtomin and thaxtomin compositions as herbicides” (priority 2008, dated 2015)
